Assay results taken from patent US4321376A, “Neplanocin-B and -F” (Toyo Jozo Kabushiki Kaisha, priority 1979, dated 1982).

Assays:
[1] = tested on: mice; assay: Acute toxicity, intraperitoneal administration to mice; format: in vivo, mouse; settings: 100 mg/kg
[2] = Anti-depressant activity; settings: no test details given
[3] = Solubility; format: physicochemical; settings: for Solubility: insoluble in: solvents in which insoluble; for Solubility: soluble in: solvents in which soluble
[4] = Nature (basicity); format: physicochemical

## Nc1ncnc2c1ncn2C1C(O)C2OC2(CO)C1O (stereo not drawn) [neplanocin B]
[1]
  Acute toxicity: mortalities: No mortalities were observed
[2]
  anti-depressant activity: has an anti-depressant activity
[3]
  Solubility: insoluble in: Insoluble: ethyl acetate, chloroform, benzene and diethyl ether
  Solubility: soluble in: Soluble: water and dimethyl sulphoxide
[4]
  Nature: weakly basic

## Nc1ncnc2c1ncn2C1C(O)C=C(CO)C1O (stereo not drawn) [neplanocin F]
[1]
  Acute toxicity: mortalities: No mortalities were observed
[3]
  Solubility: insoluble in: Insoluble: ethyl acetate, chloroform, benzene and diethyl ether
  Solubility: soluble in: Soluble: water, dimethyl sulphoxide and acetic acid
[4]
  Nature: weakly basic
